Source: patent US7345070B2, “Peroxisome proliferator activated receptor agonists” (Eli Lilly and Company, priority 2000, dated 2008)

Columns and labels:
huPPARγ [1] = target: T1, huPPARγ (Homo sapiens, UniProt P37231); test: DNA-dependent binding (ABCD binding) using SPA technology, huPPARγ; details: SPA displacement of tritium-labeled PPARγ agonist radioligand
T1 sequence (P37231 1-505): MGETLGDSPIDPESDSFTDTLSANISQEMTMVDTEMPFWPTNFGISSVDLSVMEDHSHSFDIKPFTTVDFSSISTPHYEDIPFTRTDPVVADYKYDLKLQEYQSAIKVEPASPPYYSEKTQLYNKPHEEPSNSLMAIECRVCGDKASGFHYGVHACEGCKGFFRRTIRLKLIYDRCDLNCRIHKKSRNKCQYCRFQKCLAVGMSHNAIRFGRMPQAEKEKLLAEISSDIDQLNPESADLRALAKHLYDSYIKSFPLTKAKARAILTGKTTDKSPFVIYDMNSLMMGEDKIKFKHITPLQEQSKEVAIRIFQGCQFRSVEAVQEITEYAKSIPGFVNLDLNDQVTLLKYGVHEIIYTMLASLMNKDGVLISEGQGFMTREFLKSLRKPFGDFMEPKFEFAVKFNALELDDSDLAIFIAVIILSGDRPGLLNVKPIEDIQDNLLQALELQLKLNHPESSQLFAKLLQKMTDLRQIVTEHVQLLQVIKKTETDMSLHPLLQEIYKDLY
T1 sequence (P19793 1-462 partner): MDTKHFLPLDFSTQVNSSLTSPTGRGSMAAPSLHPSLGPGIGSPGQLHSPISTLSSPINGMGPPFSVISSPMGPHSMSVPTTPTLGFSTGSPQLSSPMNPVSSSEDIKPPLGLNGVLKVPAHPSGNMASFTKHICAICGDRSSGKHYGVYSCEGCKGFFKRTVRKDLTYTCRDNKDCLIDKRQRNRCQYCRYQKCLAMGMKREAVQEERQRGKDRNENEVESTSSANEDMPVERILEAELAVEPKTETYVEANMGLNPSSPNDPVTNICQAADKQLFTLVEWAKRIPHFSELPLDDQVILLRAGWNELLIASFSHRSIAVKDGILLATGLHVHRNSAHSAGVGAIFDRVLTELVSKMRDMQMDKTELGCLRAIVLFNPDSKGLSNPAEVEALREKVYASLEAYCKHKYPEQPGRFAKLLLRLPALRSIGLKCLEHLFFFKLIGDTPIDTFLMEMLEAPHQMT
Procedure: (§1) DNA-dependent binding (ABCD binding) was carried out using SPA technology with PPAR receptors. Tritium-labeled PPARα and PPARγ agonists were used as radioligands for generating displacement curves and IC50 values with compounds of the invention. Cotransfection assays were carried out in CV-1 cells. The reporter plasmid contained an acylCoA oxidase (AOX) PPRE and TK promoter upstream of the luciferase reporter cDNA. Appropriate PPARs and RXRα were constitutively expressed using plasmids containing the CMV promoter. […] In order to eliminate such interference, a GAL4 chimeric system was used in which the DNA binding domain of the transfected PPAR was replaced by that of GAL4, and the GAL4 response element was utilized in place of the AOX PPRE. Cotransfection efficacy was determined relative to PPARα agonist and PPARγ agonist reference molecules. Efficacies were determined by computer fit to a concentration-response curve, or in some cases at a single high concentration of agonist (10 μM). For binding or cotransfection studies with receptors other than PPARs, similar assays were carried out using appropriate ligands, receptors, reporter constructs, etc., for that particular receptor.
(§2) These studies were carried out to evaluate the ability of compounds of the invention to bind to and/or activate various nuclear transcription factors, particularly huPPARα (“hu” indicates “human”) and huPPARγ. These studies provide in vitro data concerning efficacy and selectivity of compounds of the invention. Furthermore, binding and cotransfection data for compounds of the invention were compared with corresponding data for marketed compounds that act on either huPPARα or huPPARγ.

HuapoAI transgenic mice = test: Evaluation of triglyceride and cholesterol level in HuapoAI transgenic mice; format: in vivo; details: Mus musculus, 168 h; human apoAI transgenic mice, 30 mg/kg oral gavage daily for 7 days, FPLC area under the curve, over mice receiving vehicle; read-out: % HDLc Increase
Procedure: After an acclimation period of 2 weeks, animals were individually identified by ear notches, weighed, and assigned to groups based on body weight. Beginning the following morning, mice were dosed daily by oral gavage for 7 days using a 20 gauge, 1½″ curved disposable feeding needle (Popper & Sons). […] Prior to termination on day 7, mice were weighed and dosed. Three hours after dosing, animals were anesthetized by inhalation of isoflurane (2-4%; Abbott Laboratories, Chicago, Ill.) and blood obtained via cardiac puncture (0.7-1.0 ml). Whole blood was transferred to serum separator tubes (Vacutainer SST), chilled on ice, and permitted to clot. Serum was obtained after centrifugation at 4° C. and frozen until analysis for triglycerides, total cholesterol, compound levels, and serum lipoprotein profile by fast protein liquid chromatography (FPLC) coupled to an inline detection system. After sacrifice by cervical dislocation, the liver, heart and epididymal fat pads were excised and weighed.
The absorbance of the dye produced is linearly related to the analyte in the sample. The assays were further modified in our laboratory for use in a 96 well format. […] An additional aliquot of sample, pipetted to a third well and diluted in 200 μl water, provided a blank for each specimen. […] Sample absorbances were compared to a standard curve (100-800, 10-500, and 100-400 mg/dl for glucose, triglycerides and total cholesterol, respectively). […] All samples from an experiment were assayed at the same time to minimize inter-assay variability.
Serum lipoproteins were separated and cholesterol quantitated with an in-line detection system. Sample was applied to a Superose® 6 HR 10/30 size exclusion column (Amersham Pharmacia Biotech) and eluted with phosphate buffered saline-EDTA at 0.5 ml/min. […] The change in voltage corresponding to change in cholesterol concentration was plotted vs time and the area under the curve corresponding to the elution of VLDL, LDL and HDL was calculated using Perkin Elmer Turbochrome software.

huPPARγ [2] = target: T1, huPPARγ; test: Cotransfection assay in CV-1 cells, huPPARγ; format: cell-based; set-up: Appropriate PPARs and RXRα were constitutively expressed using plasmids containing the CMV promoter; expressed in transfected cells; host or cells: CV-1 cells; details: AOX PPRE luciferase reporter, relative to PPARγ agonist reference molecule; for Emax: read-out: huPPARγ CTF Efficacy
Procedure: as §1, §2

huPPARα [3] = target: T2, huPPARα (Homo sapiens, UniProt Q07869); test: DNA-dependent binding (ABCD binding) using SPA technology, huPPARα; details: SPA displacement of tritium-labeled PPARα agonist radioligand
T2 sequence (Q07869 1-468): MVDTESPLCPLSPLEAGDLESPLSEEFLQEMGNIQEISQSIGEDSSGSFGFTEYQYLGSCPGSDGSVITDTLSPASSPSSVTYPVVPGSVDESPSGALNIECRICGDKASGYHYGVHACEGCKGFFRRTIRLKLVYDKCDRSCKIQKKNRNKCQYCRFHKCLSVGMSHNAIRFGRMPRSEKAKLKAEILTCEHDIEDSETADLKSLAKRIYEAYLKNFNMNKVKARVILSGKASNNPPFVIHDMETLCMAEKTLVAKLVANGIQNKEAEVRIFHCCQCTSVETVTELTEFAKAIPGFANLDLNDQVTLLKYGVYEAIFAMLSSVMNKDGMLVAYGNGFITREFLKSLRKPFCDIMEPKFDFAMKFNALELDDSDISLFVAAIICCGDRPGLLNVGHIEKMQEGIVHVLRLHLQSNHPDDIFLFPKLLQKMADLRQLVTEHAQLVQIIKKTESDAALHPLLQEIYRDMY
T2 sequence (P19793 1-462 partner): T1 sequence (P19793 1-462 partner)
Procedure: as §1, §2

huPPARα [4] = test: Cotransfection assay in CV-1 cells, huPPARα; format: cell-based, human; details: GAL4 chimeric system, relative to PPARα agonist reference molecule
Procedure: as §1, §2

SMILES | IC50 (huPPARγ [1]) | change in vivo at 30 mg/kg (HuapoAI transgenic mice) | Emax (huPPARγ [2]) | IC50 (huPPARα [3]) | huPPARα CTF Efficacy (huPPARα [4]) | huPPARγ CTF Efficacy (huPPARγ [2])
Cc1oc(C2CCCCC2)nc1CCOc1ccc(CC(C)(Oc2ccc(Cl)cc2)C(=O)O)cc1 (stereo not drawn) [Example 31, 2-(4-Chlorophenoxy)-3-{4-[2-(2-cyclohexyl-5-methyl-oxazol-4-yl)-ethoxy]-phenyl}-2-methyl-propionic acid] | 19 nM | 114% | 73% | 53 nM | 63% | –
CCC(Cc1ccc(OCCc2nc(C3(C)CCCCC3)oc2C)cc1)(Oc1ccccc1)C(=O)O (stereo not drawn) [Example 49, 2-(4-{2-[5-Methyl-2-(1-methyl-cyclohexyl)-oxazol-4-yl]-ethoxy}-benzyl)-2-phenoxy-butyric acid] | 655 nM | 17% | 58% | 175 nM | 63% | –
CC(C)(Oc1ccc(C(=O)c2ccc(Cl)cc2)cc1)C(=O)O [Fenofibric acid, reference compound] | – | – | – | – | 16% | 0%
